According to patent publication US9127004B2, “Nitrogen containing heterocyclic compounds” (Wockhardt Ltd., priority 2011, dated 2015):

Key:
Assay in all cases: MIC of Ceftazidime in presence of test compound, agar dilution (CLSI)
Type in all cases: cell-based
E. coli 7MP = details: compound present at 4 mcg/ml
Method: (§1) The biological activity of representative compounds according to the invention against various bacterial strains was investigated. In a typical study, overnight grown bacterial cultures were diluted appropriately and inoculated on the agar media containing doubling dilutions of the test compounds. Observation for growth or no growth was performed after 16-20 hours of incubation at 35±2° C. in ambient air. The overall procedure was performed as per Clinical and Laboratory Standards Institute (CLSI) recommendations (Clinical and Laboratory Standards Institute (CLSI), Performance Standards for Antimicrobial Susceptibility Testing, 20th Informational Supplement, M 100-S20, Volume 30, No. 1, 2010).
(§2) The antibacterial activity of representative compounds according to the invention was also investigated in combination with at least one antibacterial agent using the above study protocol and the results are given Table 3 and 4.

E. coli NCTC 13351 = details: compound present at 4 mcg/ml, Table 3
Method: as §1, §2

E. coli M50 = details: compound present at 4 mcg/ml
Method: as §1, §2

E. coli B 89 = details: E. coli B 89, Class C ESBL; compound present at 4 mcg/ml; Table 4
Method: as §1, §2

E. coli W 13351 = details: E. coli W 13351, Class A ESBL; compound present at 4 mcg/ml; Table 4
Method: as §1, §2

E. coli W 13352 = details: E. coli W 13352, Class A ESBL; compound present at 4 mcg/ml; Table 4
Method: as §1, §2

K. pneumoniae H 521 = details: K. pneumoniae H 521, KPC ESBL; compound present at 4 mcg/ml; Table 4
Method: as §1, §2

A. baumannii 13304 = details: A. baumannii 13304, Class D ESBL; compound present at 4 mcg/ml; Table 4
Method: as §1, §2

K. pneumoniae H 520 = details: K. pneumoniae H 520, KPC ESBL; compound present at 4 mcg/ml; Table 4
Method: as §1, §2

A. baumannii 13301 = details: A. baumannii 13301, Class D ESBL; compound present at 4 mcg/ml; Table 4
Method: as §1, §2

E. coli W 13353 = details: E. coli W 13353, Class A ESBL; compound present at 4 mcg/ml; Table 4
Method: as §1, §2

K. pneumoniae H 522 = details: K. pneumoniae H 522, KPC ESBL; compound present at 4 mcg/ml; Table 4
Method: as §1, §2

CCc1nnc([C@H]2CC[C@@H]3CN2C(=O)N3OS(=O)(=O)[O-])o1.[Na+] (relative stereo) [Example 2, Sodium salt of trans-6-(sulphooxy)-2-(5-ethyl-[1,3,4]-oxadiazol-2-yl)-7-oxo-1,6-diazabicyclo[3.2.1]-octane]
Activity of Ceftazidime (MIC) in presence of compound (E. coli 7MP; Table 3): 32 µg/mL
Activity of Ceftazidime (MIC) in presence of compound (E. coli NCTC 13351): 16 µg/mL
Activity of Ceftazidime (MIC) in presence of compound (E. coli M50; E. coli M50, Table 3): 16 µg/mL

O=C1N2C[C@@H](CC[C@@H]2c2nnc(C(F)(F)F)o2)N1OS(=O)(=O)[O-].[Na+] (relative stereo) [Example 3, Sodium salt of trans-6-(sulphooxy)-2-(5-trifluoromethyl-[1,3,4]-oxadiazol-2-yl)-7-oxo-1,6-diazabicyclo[3.2.1]-octane]
Activity of Ceftazidime (MIC) in presence of compound (E. coli 7MP; Table 3): 32 µg/mL
Activity of Ceftazidime (MIC) in presence of compound (E. coli NCTC 13351): 16 µg/mL
Activity of Ceftazidime (MIC) in presence of compound (E. coli M50; E. coli M50, Table 3): 16 µg/mL

NC(=O)c1nnc([C@H]2CC[C@@H]3CN2C(=O)N3OS(=O)(=O)O)o1.[Na] (relative stereo) [Example 4, Sodium salt of trans-6-(sulphooxy)-2-(5-carboxamido-[1,3,4]-oxadiazol-2-yl)-7-oxo-1,6-diazabicyclo[3.2.1]-octane]
Activity of Ceftazidime (MIC) in presence of compound (E. coli 7MP; Class C ESBL, Table 4): 2 µg/mL
Activity of Ceftazidime (MIC) in presence of compound (E. coli 7MP; Table 3): 2 µg/mL
Activity of Ceftazidime (MIC) in presence of compound (E. coli B 89): 1 µg/mL
Activity of Ceftazidime (MIC) in presence of compound (E. coli W 13351): 0.5 µg/mL
Activity of Ceftazidime (MIC) in presence of compound (E. coli NCTC 13351): 0.5 µg/mL
Activity of Ceftazidime (MIC) in presence of compound (E. coli W 13352): 1 µg/mL
Activity of Ceftazidime (MIC) in presence of compound (K. pneumoniae H 521): 1 µg/mL
Activity of Ceftazidime (MIC) in presence of compound (A. baumannii 13304): 8 µg/mL
Activity of Ceftazidime (MIC) in presence of compound (E. coli M50; E. coli M 50, Class C ESBL, Table 4): 1 µg/mL
Activity of Ceftazidime (MIC) in presence of compound (E. coli M50; E. coli M50, Table 3): 1 µg/mL
Activity of Ceftazidime (MIC) in presence of compound (K. pneumoniae H 520): 1 µg/mL
Activity of Ceftazidime (MIC) in presence of compound (A. baumannii 13301): >32 µg/mL
Activity of Ceftazidime (MIC) in presence of compound (E. coli W 13353): 0.25 µg/mL
Activity of Ceftazidime (MIC) in presence of compound (K. pneumoniae H 522): 1 µg/mL

O=C1N2C[C@@H](CC[C@@H]2c2nnc(-c3ccon3)o2)N1OS(=O)(=O)[O-].[Na+] (relative stereo) [Example 5, Sodium salt of trans-6-(sulphooxy)-2-(5-(isooxazol-3-yl)-[1,3,4]-oxadiazol-2-yl)-7-oxo-1,6-diazabicyclo[3.2.1]-octane]
Activity of Ceftazidime (MIC) in presence of compound (E. coli 7MP; Table 3): 16 µg/mL
Activity of Ceftazidime (MIC) in presence of compound (E. coli NCTC 13351): 4 µg/mL
Activity of Ceftazidime (MIC) in presence of compound (E. coli M50; E. coli M50, Table 3): 4 µg/mL

O=C1N2C[C@@H](CC[C@@H]2c2nnc(-c3ccco3)o2)N1OS(=O)(=O)[O-].[Na+] (relative stereo) [Example 6, Sodium salt of trans-6-(sulphooxy)-2-(5-(furan-2-yl)-[1,3,4]-oxadiazol-2-yl)-7-oxo-1,6-diazabicyclo[3.2.1]-octane]
Activity of Ceftazidime (MIC) in presence of compound (E. coli 7MP; Table 3): 32 µg/mL
Activity of Ceftazidime (MIC) in presence of compound (E. coli NCTC 13351): 32 µg/mL
Activity of Ceftazidime (MIC) in presence of compound (E. coli M50; E. coli M50, Table 3): 16 µg/mL

O=C1N2C[C@@H](CC[C@@H]2c2nnc(-c3ccccc3)o2)N1OS(=O)(=O)O.[Na] (relative stereo) [Example 7, Sodium salt of trans-6-(sulphooxy)-2-(5-phenyl-[1,3,4]-oxadiazol-2-yl)-7-oxo-1,6-diazabicyclo[3.2.1]-octane]
Activity of Ceftazidime (MIC) in presence of compound (E. coli 7MP; Table 3): 32 µg/mL
Activity of Ceftazidime (MIC) in presence of compound (E. coli NCTC 13351): 16 µg/mL
Activity of Ceftazidime (MIC) in presence of compound (E. coli M50; E. coli M50, Table 3): 16 µg/mL

O=C1N2C[C@@H](CC[C@@H]2c2nnc(-c3ccccn3)o2)N1OS(=O)(=O)[O-].[Na+] (relative stereo) [Example 8, Sodium salt of trans-6-(sulphooxy)-2-(5-(pyridin-2-yl)-[1,3,4]-oxadiazol-2-yl)-7-oxo-1,6-diazabicyclo[3.2.1]-octane]
Activity of Ceftazidime (MIC) in presence of compound (E. coli 7MP; Table 3): 32 µg/mL
Activity of Ceftazidime (MIC) in presence of compound (E. coli NCTC 13351): 16 µg/mL
Activity of Ceftazidime (MIC) in presence of compound (E. coli M50; E. coli M50, Table 3): 16 µg/mL

NC(=O)c1cccc(-c2nnc([C@H]3CC[C@@H]4CN3C(=O)N4OS(=O)(=O)O)o2)n1.[Na] (relative stereo) [Example 9, Sodium salt of trans-6-(sulphooxy)-2-(5-(6-carboxamido-pyridin-2-yl)-[1,3,4]-oxadiazol-2-yl)-7-oxo-1,6-diazabicyclo[3.2.1]-octane]
Activity of Ceftazidime (MIC) in presence of compound (E. coli 7MP; Table 3): >32 µg/mL
Activity of Ceftazidime (MIC) in presence of compound (E. coli NCTC 13351): 2 µg/mL
Activity of Ceftazidime (MIC) in presence of compound (E. coli M50; E. coli M50, Table 3): 8 µg/mL

O=C1N2C[C@@H](CC[C@@H]2c2nnc(-c3cn4c(n3)COCC4)o2)N1OS(=O)(=O)O.[Na] (relative stereo) [Example 10, Sodium salt of trans-6-(sulphooxy)-2-(5-(5,6-dihydro-8H-imidazo[2,1-c][1,4]-oxazin-2-yl)-[1,3,4]-oxadiazol-2-yl)-7-oxo-1,6-diazabicyclo[3.2.1]-octane]
Activity of Ceftazidime (MIC) in presence of compound (E. coli 7MP; Table 3): 32 µg/mL
Activity of Ceftazidime (MIC) in presence of compound (E. coli NCTC 13351): 16 µg/mL
Activity of Ceftazidime (MIC) in presence of compound (E. coli M50; E. coli M50, Table 3): 16 µg/mL

O=C1N2C[C@@H](CC[C@@H]2c2nnc(CN3CCOCC3)o2)N1OS(=O)(=O)O.[Na] (relative stereo) [Example 11, Sodium salt of trans-6-(sulphooxy)-2-(5-(morpholino-4-methyl)-[1,3,4]-oxadiazol-2-yl)-7-oxo-1,6-diazabicyclo[3.2.1]-octane]
Activity of Ceftazidime (MIC) in presence of compound (E. coli 7MP; Table 3): 32 µg/mL
Activity of Ceftazidime (MIC) in presence of compound (E. coli NCTC 13351): 1 µg/mL
Activity of Ceftazidime (MIC) in presence of compound (E. coli M50; E. coli M50, Table 3): 2 µg/mL

O=C(c1nnc([C@H]2CC[C@@H]3CN2C(=O)N3OS(=O)(=O)[O-])o1)N1CCOCC1.[Na+] (relative stereo) [Example 12, Sodium salt of trans-sulfuric acid mono-[2-(5-(morpholin-4-yl-carbonyl)-[1,3,4]-oxadiazol-2-yl)-7-oxo-1,6-diazabicyclo[3.2.1]-octan-6-yl]ester]
Activity of Ceftazidime (MIC) in presence of compound (E. coli 7MP; Table 3): 16 µg/mL
Activity of Ceftazidime (MIC) in presence of compound (E. coli NCTC 13351): 2 µg/mL
Activity of Ceftazidime (MIC) in presence of compound (E. coli M50; E. coli M50, Table 3): 8 µg/mL
